Measurements: patent publication US7687609B2, “Galectin-glycosaminoglycan complex and method for controlling galectin activity” (National Institute of Advanced Industrial Science and …, priority 2006, dated 2010)

Tests used:
Experiment in all cases: FAC affinity test on galectin-immobilized column
Assay type in all cases: binding
Galectin-3 = molecular target: T1, Galectin-3 (Homo sapiens, UniProt P17931); conditions: pyridyl-aminated carbohydrate; galectin-3 immobilized 0.5 mg/ml; less than 5 μl = below interaction detection limit
T1 construct: made in house
Description: (§1) Various galectin molecules-immobilized columns were prepared by the method described by Nakamura S, Yagi F, Totani K, Ito γ and Hirabayashi J in FEBS J., 272, 2784-2799 (2005), using NHS Sepharose (manufactured by Amersham Bioscience) as the carrier for immobilizing galectin molecules and in accordance with the instructions attached thereto (put in parentheses is immobilization concentration, mg galectin/ml carrier).
(§2) Each galectin molecule was immobilized onto the carrier at the following concentration; galectin-1 (0.8 mg/ml), galectin-3 (0.5 mg/ml), galectin-8N (3.6 mg/ml), galectin-8C (4.0 mg/ml), galectin-9N (3.6 mg/ml), galectin-9C (3.0 mg/ml). The carrier on which each galectin was immobilized was charged into a stainless steel miniature column (2 mm in inner diameter, 10 mm in length; manufactured by Shimadzu Corp.).
(§3) A high performance liquid chromatography (HPLC) system was equipped with a galectin molecule-immobilized column, and the test was carried out by the method described in Nakamura S, Yagi F, Totani K, Ito γ and Hirabayashi J in FEBS J., 272, 2784-2799 (2005).
(§4) As the negative control sample, pyridyl-aminated N-acetylglucosamine (PA-GlcNAc, manufactured by Takara Bio, pyridyl-aminated glycosaminoglycan-oligosaccharide sample control) or pyridyl-aminated pullulan (prepared by carrying out pyridylamination of standard pullulan manufactured by Shodex, pyridyl-aminated glycosaminoglycan polysaccharide sample control) was used, and a V−V0 value was calculated from their eluate volume (V0 value) measured by fluorescence detection and the eluate volume (V value) of the sample, namely pyridyl-aminated glycosaminoglycan carbohydrate, and this was used as the index of interaction strength (Protein, Nucleic Acid and Enzyme, 48(8), 1206-1212 (2003)).
(§5) V−V0 values of pyridyl-aminated glycosaminoglycans (HA, CH, DN, NAH, CSA, CSB, CSC, CSD, CSE, KS-I and KS-II) were calculated based on PA-GlcNAc, and V−V0 values of pyridyl-aminated glycosaminoglycan-oligosaccharides (G2K1, G1L1, G4L4, L2L2, L2L4, L4L4, SL2L4 and CH3 to CH12) based on pyridyl-aminated pullulan, respectively.
(§6) In this connection, when the calculated value of the V−V0 value was less than 5 μl, it was regarded as less than the interaction detection limit in this example.

Galectin-1 = molecular target: T2, Galectin-1 (Homo sapiens, UniProt P09382); conditions: pyridyl-aminated carbohydrate; galectin-1 immobilized 0.8 mg/ml; less than 5 μl = below interaction detection limit
T2 construct: made in house
Description: as §1, §2, §3, §4, §5, §6

Galectin-9N = molecular target: T3, Galectin-9N (Homo sapiens, UniProt O00182); conditions: pyridyl-aminated carbohydrate; galectin-9N immobilized 3.6 mg/ml; less than 5 μl = below interaction detection limit
T3 construct: N and C respectively represent N-terminal side carbohydrate-recognition domain and C-terminal side carbohydrate-recognition domain; made in house
Description: as §1, §2, §3, §4, §5, §6

Galectin-9C = molecular target: T4, Galectin-9C (Homo sapiens, UniProt O00182); conditions: pyridyl-aminated carbohydrate; galectin-9C immobilized 3.0 mg/ml; less than 5 μl = below interaction detection limit
T4 construct: N and C respectively represent N-terminal side carbohydrate-recognition domain and C-terminal side carbohydrate-recognition domain; made in house
Description: as §1, §2, §3, §4, §5, §6

T4 sequence (O00182 227-355 limits assumed): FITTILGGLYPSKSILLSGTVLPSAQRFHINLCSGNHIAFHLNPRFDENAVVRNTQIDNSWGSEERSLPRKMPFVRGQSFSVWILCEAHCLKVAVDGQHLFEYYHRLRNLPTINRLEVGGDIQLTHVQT
T3 sequence (O00182 17-148 limits assumed): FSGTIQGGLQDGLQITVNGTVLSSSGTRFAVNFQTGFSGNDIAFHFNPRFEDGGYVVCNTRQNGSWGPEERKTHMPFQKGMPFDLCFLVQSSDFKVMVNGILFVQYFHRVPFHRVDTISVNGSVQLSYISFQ
T1 sequence (P17931 whole entry): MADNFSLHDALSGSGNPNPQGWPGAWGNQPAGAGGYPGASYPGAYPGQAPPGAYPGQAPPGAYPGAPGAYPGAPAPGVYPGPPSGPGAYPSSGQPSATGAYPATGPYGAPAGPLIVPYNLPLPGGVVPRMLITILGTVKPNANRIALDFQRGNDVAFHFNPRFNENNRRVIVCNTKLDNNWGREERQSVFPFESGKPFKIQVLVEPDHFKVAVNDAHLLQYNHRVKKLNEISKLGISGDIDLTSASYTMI
T2 sequence (P09382 whole entry): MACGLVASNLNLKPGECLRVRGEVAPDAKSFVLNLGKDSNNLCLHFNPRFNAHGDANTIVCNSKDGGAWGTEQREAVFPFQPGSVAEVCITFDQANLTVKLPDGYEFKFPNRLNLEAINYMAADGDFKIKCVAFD

| Compound | V − V0 Value (Galectin-3) | V − V0 Value (Galectin-1) | V − V0 Value (Galectin-9N) | V − V0 Value (Galectin-9C) |
| --- | --- | --- | --- | --- |
| CC(=O)N[C@H]1[C@H](O[C@H]2[C@H](O)[C@@H](O)[C@H](O[C@H]3[C@@H](O)[C@@H](CO)OC(O)[C@@H]3NC(C)=O)O[C@@H]2C(=O)O)O[C@H](CO)[C@H](O)[C@@H]1O (stereo partly drawn) [CH3, GalNAc β1-4 GlcA β1-3 GalNAc] | <5.0 µL | <5.0 µL | 49.6 ± 8.2 µL |  |
| CC(=O)N[C@H]1[C@H](O[C@H]2[C@H](O)[C@@H](O)[C@H](O[C@H]3[C@@H](O)[C@@H](CO)O[C@@H](O[C@H]4[C@H](O)[C@@H](O)[C@H](O[C@H]5[C@@H](O)[C@@H](CO)OC(O)[C@@H]5NC(C)=O)O[C@@H]4C(=O)O)[C@@H]3NC(C)=O)O[C@@H]2C(=O)O)O[C@H](CO)[C@H](O)[C@@H]1O (stereo partly drawn) [CH5, (GalNAc β1-4 GlcA β1-3)2 GalNAc] | <5.0 µL | <5.0 µL | 45.6 ± 4.6 µL |  |
| CC(=O)N[C@H]1[C@H](O[C@H]2[C@H](O)[C@@H](O)[C@H](O[C@H]3[C@@H](O)[C@@H](CO)O[C@@H](O[C@H]4[C@H](O)[C@@H](O)[C@H](O[C@H]5[C@@H](O)[C@@H](CO)O[C@@H](O[C@H]6[C@H](O)[C@@H](O)[C@H](O[C@H]7[C@@H](O)[C@@H](CO)OC(O)[C@@H]7NC(C)=O)O[C@@H]6C(=O)O)[C@@H]5NC(C)=O)O[C@@H]4C(=O)O)[C@@H]3NC(C)=O)O[C@@H]2C(=O)O)O[C@H](CO)[C@H](O)[C@@H]1O (stereo partly drawn) [CH7, (GalNAc β1-4 GlcA β1-3)3 GalNAc] | 10.7 ± 1.9 µL | <5.0 µL | 146.4 µL | <5.0 µL |

Second part, the molecule after the results:

| V − V0 Value (Galectin-3) | V − V0 Value (Galectin-1) | V − V0 Value (Galectin-9N) | V − V0 Value (Galectin-9C) | Compound |
| --- | --- | --- | --- | --- |
| 16.8 ± 2.1 µL |  | 196.0 µL |  | CC(=O)NC1C(O)OC(CO)C(O)C1OC1OC(C(=O)O)C(OC2OC(CO)C(O)C(OC3OC(C(=O)O)C(OC4OC(CO)C(O)C(OC5OC(C(=O)O)C(OC6OC(CO)C(O)C(OC7OC(C(=O)O)C(OC8OC(CO)C(O)C(OC9OC(C(=O)O)C(OC%10OC(CO)C(O)C(OC%11OC(C(=O)O)C(O)C(O)C%11O)C%10NC(C)=O)C(O)C9O)C8NC(C)=O)C(O)C7O)C6NC(C)=O)C(O)C5O)C4NC(C)=O)C(O)C3O)C2NC(C)=O)C(O)C1O (stereo not drawn) [CH12, GlcA β1-3 (GalNAc β1-4 GlcA β1-3)5 GalNAc] |
| 15.6 ± 2.5 µL | <5.0 µL | 199.4 µL | <5.0 µL | CC(=O)NC1C(OC2C(C(=O)O)OC(OC3C(O)C(CO)OC(OC4C(C(=O)O)OC(OC5C(O)C(CO)OC(OC6C(C(=O)O)OC(OC7C(O)C(CO)OC(OC8C(C(=O)O)OC(OC9C(O)C(CO)OC(O)C9NC(C)=O)C(O)C8O)C7NC(C)=O)C(O)C6O)C5NC(C)=O)C(O)C4O)C3NC(C)=O)C(O)C2O)OC(CO)C(O)C1O (stereo not drawn) [CH9, (GalNAc β1-4 GlcA β1-3)4 GalNAc] |
| 21.4 ± 4.2 µL |  | 218.8 µL |  | CC(=O)NC1C(OC2C(C(=O)O)OC(OC3C(O)C(CO)OC(OC4C(C(=O)O)OC(OC5C(O)C(CO)OC(OC6C(C(=O)O)OC(OC7C(O)C(CO)OC(OC8C(C(=O)O)OC(OC9C(O)C(CO)OC(OC%10C(C(=O)O)OC(OC%11C(O)C(CO)OC(O)C%11NC(C)=O)C(O)C%10O)C9NC(C)=O)C(O)C8O)C7NC(C)=O)C(O)C6O)C5NC(C)=O)C(O)C4O)C3NC(C)=O)C(O)C2O)OC(CO)C(O)C1O (stereo not drawn) [CH11, (GalNAc β1-4 GlcA β1-3)5 GalNAc] |
| 7.8 ± 1.9 µL | <5.0 µL | 116.2 µL | <5.0 µL | CC(=O)N[C@H]1[C@H](O[C@H]2[C@H](O)[C@@H](O)[C@H](O[C@H]3[C@@H](O)[C@@H](CO)O[C@@H](O[C@H]4[C@H](O)[C@@H](O)[C@H](O[C@H]5[C@@H](O)[C@@H](CO)O[C@@H](O[C@H]6[C@H](O)[C@@H](O)[C@H](O[C@H]7[C@@H](O)[C@@H](CO)OC(O)[C@@H]7NC(C)=O)O[C@@H]6C(=O)O)[C@@H]5NC(C)=O)O[C@@H]4C(=O)O)[C@@H]3NC(C)=O)O[C@@H]2C(=O)O)O[C@H](CO)[C@H](O)[C@@H]1O[C@@H]1O[C@H](C(=O)O)[C@@H](O)[C@H](O)[C@H]1O (stereo partly drawn) [CH8, GlcA β1-3 (GalNAc β1-4 GlcA β1-3)3 GalNAc] |
